Experimental data: patent US12655150B2 (Cedilla Therapeutics, Inc., priority 2021, dated 2026)

test system: NCI-H226; assay: 72H TEAD Proliferation Assay (Cell Titer Glo 2.0); format: cell-based; conditions: Homo sapiens, NCI-H226, 72 h, CTG 2.0, cell line not given (NCI-H226 responsive, NCI-H28 non-responsive)
In short: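 NF2-deficient NCI-H226 mesothelioma cells, TEAD-dependent, treated 72 h; NF2-wild-type NCI-H28 serves as the TEAD-independent counter-screen for off-target cytotoxicity. Viable cells quantified by CellTiter-Glo 2.0 luminescence; background and time-zero signal subtracted, GI50 from nonlinear dose-response fit.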

Compound | GI50 [nM]
CC(C)(C)c1ccc(-c2cnc3ccc(C(N)=O)cc3n2)cc1 [I-158, 3-(4-(tert-Butyl)phenyl)quinoxaline-6-carboxamide] | > 10000
COc1cc(-c2ccc(C(F)(F)F)cc2)nc2cc(C3(O)COC3)ccc12 [I-419, 3-(4-methoxy-2-(4-(trifluoromethyl)phenyl)quinolin-7-yl)oxetan-3-ol] | 1000 to 5000
C=CC(=O)Nc1ccc2cc(C)c(-c3ccc(C(C)(C)C)cc3)nc2c1 [I-98, N-(2-(4-(tert-butyl)phenyl)-3-methylquinolin-7-yl)acrylamide] | ≤ 1000
O=C(O)c1ccc2c(-c3cnco3)cc(-c3ccc(C(F)(F)F)cc3)nc2c1 [I-389, 4-(oxazol-5-yl)-2-(4-(trifluoromethyl)phenyl)quinoline-7-carboxylic acid] | ≤ 1000
C=CC(=O)NCc1cn2ccnc2c(Nc2cccc(OC(F)(F)F)c2)n1 [I-442, N-((8-((3-(trifluoromethoxy)phenyl)amino)imidazo[1,2-a]pyrazin-6-yl)methyl)acrylamide] | 1000 to 5000
CN(C)CC(=O)Nc1ccc2c(c1)nc(-c1ccc(C(C)(C)C)cc1)c1cccn12 [I-205, N-(4-(4-(tert-butyl)phenyl)pyrrolo[1,2-a]quinoxalin-7-yl)-2-(dimethylamino)acetamide] | 1000 to 5000
O=C(O)c1ccc2c(c1)nc(N1CCC3(CCCCCC3)C1)c1cccn12 [I-25, 4-(2-Azaspiro[4.6]undecan-2-yl)pyrrolo[1,2-a]quinoxaline-7-carboxylic acid] | 5000 to 10000
C=CC(=O)NCc1cn2ccnc2c(N2CCC3(CC2)CC3)n1 [I-437, N-((8-(6-azaspiro[2.5]octan-6-yl)imidazo[1,2-a]pyrazin-6-yl)methyl)acrylamide] | 1000 to 5000
CCNS(=O)(=O)c1ccc2c(OC)cc(-c3ccc(C(F)(F)F)cc3)nc2c1 [I-417, N-ethyl-4-methoxy-2-(4-(trifluoromethyl)phenyl)quinoline-7-sulfonamide] | ≤ 1000
CC(C)(C)c1ccc(-c2nc3cc(C(=O)NS(=O)(=O)C4CC4)ccc3n3cccc23)cc1 [I-124, 4-(4-(tert-Butyl)phenyl)-N-(cyclopropylsulfonyl)pyrrolo[1,2-a]quinoxaline-7-carboxamide] | > 10000
C=CC(=O)Nc1ccc2ccc(-c3ccc(C(C)(C)C)cc3)nc2c1 [I-106, N-(2-(4-(tert-butyl)phenyl)quinolin-7-yl)acrylamide] | 1000 to 5000
O=C(O)c1ccc2c(c1)nc(-c1ccc(C(F)(F)F)cc1)c1nccn12 [I-61, 4-(4-(Trifluoromethyl)phenyl)imidazo[1,2-a]quinoxaline-7-carboxylic acid] | 1000 to 5000
O=C(O)c1cc2nc(-c3ccc(C(F)(F)F)cc3)c3ccccc3n2c1 [I-421, 5-(4-(trifluoromethyl)phenyl)pyrrolo[1,2-a]quinazoline-2-carboxylic acid] | 1000 to 5000
Cc1cc(-c2ccc(C(F)(F)F)cc2)nc2cc(C(=O)N[C@@H](C)CO)ccc12 [I-262, (S)—N-(1-hydroxypropan-2-yl)-4-methyl-2-(4-(trifluoromethyl)phenyl)quinoline-7-carboxamide] | ≤ 1000
O=C(O)c1ccc2c(c1)nc(NCCCC(F)(F)F)c1cccn12 [I-1, 4-((4,4,4-Trifluorobutyl)amino) pyrrolo[1,2-a]quinoxaline-7-carboxylic acid] | > 10000
C=CC(=O)NCc1nc(-c2ccc(C(F)(F)F)cc2)c2ccncc2n1 [I-309, N-((4-(4-(trifluoromethyl)phenyl)pyrido[3,4-d]pyrimidin-2-yl)methyl)acrylamide] | ≤ 1000
CC(C)(C)c1ccc(-c2nc3cc(C(=O)O)ccc3n3cc(SC(F)(F)F)cc23)cc1 [I-411, 4-(4-(tert-Butyl)phenyl)-2-((trifluoromethyl)thio)pyrrolo[1,2-a]quinoxaline-7-carboxylic acid] | 1000 to 5000
N#Cc1cc(C(F)(F)F)ccc1-c1nc2cc(C(=O)O)ccc2n2cccc12 [I-54, 4-(2-Cyano-4-(trifluoromethyl)phenyl)pyrrolo[1,2-a]quinoxaline-7-carboxylic acid] | 5000 to 10000
CC(C)(C)c1ccc(-c2nc3cc(C(=O)NCCOCCOCCN)ccc3n3cccc23)cc1 [I-385, N-(2-(2-(2-Aminoethoxy)ethoxy)ethyl)-4-(4-(tert-butyl)phenyl)pyrrolo[1,2-a]quinoxaline-7-carboxamide] | 5000 to 10000
CC(F)(F)C1CCN(c2nc3cc(C(=O)O)ccc3n3cccc23)CC1 [I-14, 4-(4-(1,1-Difluoroethyl)piperidin-1-yl)pyrrolo[1,2-a]quinoxaline-7-carboxylic acid] | > 10000
C=CC(=O)NCc1nc(-c2ccc(C(F)(F)F)cc2F)c2ncccc2n1 [I-306, N-((4-(2-fluoro-4-(trifluoromethyl)phenyl)pyrido[3,2-d]pyrimidin-2-yl)methyl)acrylamide] | ≤ 1000
C=CC(=O)NCc1cc2nccn2c(-c2ccc(C(F)(F)F)cc2)n1 [I-315, N-((5-(4-(trifluoromethyl)phenyl)imidazo[1,2-c]pyrimidin-7-yl)methyl)acrylamide] | ≤ 1000

Compound | GI50 [nM]
C[C@H](CO)NC(=O)c1ccc2c(c1)nc(-c1ccc(C(C)(C)C)cc1)c1cccn12 [I-191, (R)-4-(4-(tert-butyl)phenyl)-N-(1-hydroxypropan-2-yl)pyrrolo[1,2-a]quinoxaline-7-carboxamide] | ≤ 1000
O=C(O)c1ccc2c(c1)nc(N1CCCC1)c1cccn12 [I-15, 4-(Pyrrolidin-1-yl)pyrrolo[1,2-a]quinoxaline-7-carboxylic acid] | > 10000
COc1cc(-c2ccc(C(F)(F)F)cc2)nc2cc(C(=O)N[C@@H](CO)Cc3ccccc3)ccc12 [I-369, (R)—N-(1-hydroxy-3-phenylpropan-2-yl)-4-methoxy-2-(4-(trifluoromethyl)phenyl)quinoline-7-carboxamide] | ≤ 1000
CN(C)CCNC(=O)c1ccc2c(c1)nc(-c1ccc(C(C)(C)C)cc1)c1cccn12 [I-188, 4-(4-(tert-butyl)phenyl)-N-(2-(dimethylamino)ethyl)pyrrolo[1,2-a]quinoxaline-7-carboxamide] | 1000 to 5000
C=CC(=O)Nc1ccc2c(c1)nc(-c1ccc(C(C)(C)C)cc1)c1nccn12 [I-91, N-(4-(4-(tert-butyl)phenyl)imidazo[1,2-a]quinoxalin-7-yl)acrylamide] | ≤ 1000
Cc1ccc(-c2nc3cc(C(=O)O)ccc3n3ccnc23)cc1 [I-66, 4-(p-Tolyl)imidazo[1,2-a]quinoxaline-7-carboxylic acid] | 5000 to 10000
C=CC(=O)Nc1ccc2cnc(-c3ccc(F)cc3)nc2c1 [I-82, N-(2-(4-Fluorophenyl)quinazolin-7-yl)acrylamide] | 1000 to 5000
O=C(O)c1ccc2c(c1)nc(NC1CCCC(C(F)(F)F)C1)c1cccn12 (centres unmarked) [I-19, 4-((3-(Trifluoromethyl)cyclohexyl)amino)pyrrolo[1,2-a]quinoxaline-7-carboxylic acid] | 1000 to 5000
C=CC(=O)NCc1cn2c(F)cnc2c(-c2ccc(C(F)(F)F)cc2)n1 [I-235, N-((3-fluoro-8-(4-(trifluoromethyl)phenyl)imidazo[1,2-a]pyrazin-6-yl)methyl)acrylamide] | ≤ 1000
O=C(O)c1ccc2c(C3CC3)cc(-c3ccc(C(F)(F)F)cc3)nc2c1 [I-387, 4-cyclopropyl-2-(4-(trifluoromethyl)phenyl)quinoline-7-carboxylic acid] | ≤ 1000
CC(C)(C)c1ccc(-c2nc3cc(NS(C)(=O)=O)ccc3n3cccc23)cc1 [I-122, N-(4-(4-(tert-butyl)phenyl)pyrrolo[1,2-a]quinoxalin-7-yl)methanesulfonamide] | 1000 to 5000
Cc1cc2c(N3CCC(C(F)(F)F)CC3)nc3cc(C(=O)O)ccc3n2c1 [I-406, 2-Methyl-4-(4-(trifluoromethyl)piperidin-1-yl)pyrrolo[1,2-a]quinoxaline-7-carboxylic acid] | ≤ 1000
COCc1cc(-c2ccc(C(F)(F)F)cc2)nc2cc(C(=O)N[C@H](C)CO)ccc12 [I-271, (R)—N-(1-hydroxypropan-2-yl)-4-(methoxymethyl)-2-(4-(trifluoromethyl)phenyl)quinoline-7-carboxamide] | 1000 to 5000
COCC(C)NC(=O)N1CCc2c(cccc2-c2ccc(C(F)(F)F)cc2)C1 (centres unmarked) [I-78, N-(1-methoxypropan-2-yl)-5-(4-(trifluoromethyl)phenyl)-3,4-dihydroisoquinoline-2(1H)-carboxamide] | ≤ 1000
CCOc1nc(-c2ccc(C(F)(F)F)cc2)nc2cc(C(=O)O)ccc12 [I-432, 4-ethoxy-2-(4-(trifluoromethyl)phenyl)quinazoline-7-carboxylic acid] | ≤ 1000
CC(C)(C)N1CCN(c2nc3cc(C(=O)O)ccc3n3cccc23)CC1 [I-20, 4-(4-(tert-Butyl)piperazin-1-yl)pyrrolo[1,2-a]quinoxaline-7-carboxylic acid] | > 10000
C=CC(=O)NCc1cc2ccccc2c(-c2ccc(C(F)(F)F)cc2F)n1 [I-301, N-((1-(2-Fluoro-4-(trifluoromethyl)phenyl)isoquinolin-3-yl)methyl)acrylamide] | ≤ 1000
O=C(O)c1ccc2c(c1)nc(-c1ccc(C(F)(F)F)cc1F)c1nccn12 [I-60, 4-(2-Fluoro-4-(trifluoromethyl)phenyl)imidazo[1,2-a]quinoxaline-7-carboxylic acid] | 1000 to 5000
C=CC(=O)NCc1cn2ccnc2c(N(C)Cc2ccc(C(F)(F)F)cc2)n1 [I-300, N-((8-(methyl(4-(trifluoromethyl)benzyl)amino)imidazo[1,2-a]pyrazin-6-yl)methyl)acrylamide] | ≤ 1000
CC(C)(C)c1ccc(-c2cncc3cc(C(=O)O)ccc23)cc1 [I-95, 4-(4-(tert-Butyl)phenyl)isoquinoline-7-carboxylic acid] | > 10000
O=C(O)c1ccc2c(c1)nc(-c1ccc(Cl)cc1)c1cccn12 [I-48, 4-(4-Chlorophenyl)pyrrolo[1,2-a]quinoxaline-7-carboxylic acid] | > 10000
Cc1nc(-c2ccc(C(F)(F)F)cc2)nc2cc(C(=O)O)ccc12 [I-435, 4-methyl-2-(4-(trifluoromethyl)phenyl)quinazoline-7-carboxylic acid] | 1000 to 5000
